# Data as given in BindingDB's records for patent US20250171431 (Horizon Therapeutics Ireland Dac, 2025).
# Target: Insulin-like growth factor 1 receptor (Homo sapiens, UniProt P08069)
# Assay: Biologic and Pharmacologic Assay
# Procedure: The media was removed and replaced by 50 μL of 1× lysis buffer from the AlphaLISA kit (with 1× of cOmplete™ protease inhibitor). The plates were sealed, and cells were allowed to lyse for 10 min in the shaker before storing the plate at −20° C. until used. The AlphaLISA assay with processed cell lysates were performed as described in the protocol. Briefly, 10 μL of the undiluted sample were loaded to 384 well Optiplates and 5 μL of the acceptor mix (as described in the AlphaLISA kit) was added to each well. The plates were sealed and briefly vortexed followed by the incubation at RT for 3 hours. In the dark, 5 μL of donor mix was added to each well. All plates were sealed and stored at RT overnight. The plates were read in EnVision reader using standard AlphaLISA settings.Compound activity was analyzed using CBIS data analysis suite (ChemInnovation, CA).
# Insulin-like growth factor 1 receptor, sequence (P08069 31-736 limits assumed): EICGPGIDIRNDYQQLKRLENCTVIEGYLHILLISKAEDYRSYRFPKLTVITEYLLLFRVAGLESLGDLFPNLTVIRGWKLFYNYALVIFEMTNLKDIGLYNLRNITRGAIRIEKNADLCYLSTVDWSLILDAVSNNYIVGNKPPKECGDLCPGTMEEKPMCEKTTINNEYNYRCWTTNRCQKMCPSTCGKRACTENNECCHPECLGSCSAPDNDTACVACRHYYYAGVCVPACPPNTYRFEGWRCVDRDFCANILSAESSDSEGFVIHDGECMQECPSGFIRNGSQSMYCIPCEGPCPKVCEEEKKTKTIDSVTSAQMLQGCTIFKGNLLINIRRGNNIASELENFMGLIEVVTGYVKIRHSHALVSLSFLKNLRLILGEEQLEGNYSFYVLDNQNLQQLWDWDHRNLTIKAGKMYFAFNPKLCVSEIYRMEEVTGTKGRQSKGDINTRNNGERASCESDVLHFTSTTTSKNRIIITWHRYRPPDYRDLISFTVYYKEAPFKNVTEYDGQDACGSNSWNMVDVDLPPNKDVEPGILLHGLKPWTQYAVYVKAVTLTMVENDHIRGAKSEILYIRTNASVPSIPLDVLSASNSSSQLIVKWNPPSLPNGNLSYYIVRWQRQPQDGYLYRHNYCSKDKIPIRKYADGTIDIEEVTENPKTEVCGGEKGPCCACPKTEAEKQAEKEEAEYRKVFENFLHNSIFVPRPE
# Insulin-like growth factor 1 receptor, sequence (P08069 741-1367 limits assumed): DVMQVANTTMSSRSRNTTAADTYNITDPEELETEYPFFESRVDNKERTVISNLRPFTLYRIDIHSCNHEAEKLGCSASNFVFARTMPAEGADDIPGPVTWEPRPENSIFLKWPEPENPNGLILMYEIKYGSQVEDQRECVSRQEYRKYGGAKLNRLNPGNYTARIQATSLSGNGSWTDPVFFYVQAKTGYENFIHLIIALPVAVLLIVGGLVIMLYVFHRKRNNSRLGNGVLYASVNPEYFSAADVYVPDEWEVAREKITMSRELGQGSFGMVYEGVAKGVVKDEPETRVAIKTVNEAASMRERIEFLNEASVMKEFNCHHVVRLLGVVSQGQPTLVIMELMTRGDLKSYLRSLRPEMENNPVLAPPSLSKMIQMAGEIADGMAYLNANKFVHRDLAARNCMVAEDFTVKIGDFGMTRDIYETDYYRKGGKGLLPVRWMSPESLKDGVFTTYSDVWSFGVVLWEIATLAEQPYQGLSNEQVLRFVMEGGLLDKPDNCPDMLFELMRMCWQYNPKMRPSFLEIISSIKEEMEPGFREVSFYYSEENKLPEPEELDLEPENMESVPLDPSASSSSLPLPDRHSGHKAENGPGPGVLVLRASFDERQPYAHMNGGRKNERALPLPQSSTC
row,IC50 [nM],SMILES
1,< 500,"COc1cc(Nc2nccc(Nc3cc4cccc(F)c4[nH]c3=O)n2)ccc1C1CCNCC1(F)F (stereo not given) [US20250171431, Compound 208]"
2,< 500,"COc1cc(Nc2nccc(Nc3cc(F)c4ncc(Br)cc4c3)n2)ccc1O[C@H]1C[C@@H](N(C)C)C1 [US20250171431, Compound 133]"
3,< 500,"COc1cc(Nc2nccc(Nc3cnc4ccc(Cl)cc4c3)n2)cnc1N1CCNC(C(F)F)C1 (stereo not given) [US20250171431, Compound 483]"
4,< 500,"COc1cc(Nc2nccc(Nc3cnc4ccccc4c3)n2)ccc1N1CCC(N2CCCCC2)CC1 [US20250171431, Compound 1]"
5,< 500,"COc1cc(Nc2nccc(Nc3ccc4ncc(Cl)nc4c3)n2)ccc1O[C@H]1C[C@@H](N(C)C)C1 [US20250171431, Compound 134]"
6,> 10000,"COc1cc(Nc2nccc(Nc3cc4cccc(F)c4nc3O)n2)cnc1O[C@@H]1C[C@H](N(C)C)C1(C)C [US20250171431, Compound 253]"
7,< 500,"COc1cc(Nc2nccc(Nc3ccc(C4CC4)nc3C(N)=O)n2)ccc1O[C@H]1C[C@@H](N(C)C)C1 [US20250171431, Compound 124]"
8,< 500,"COc1cc(Nc2nccc(Nc3cc4cc(Cl)ccc4[nH]c3=O)n2)ccc1O[C@H]1CC[C@@H](N(C)C)CC1 [US20250171431, Compound 247]"
9,500 to 2000,"COc1cc(Nc2nccc(Nc3cnc4c(c3)OC(C)(C)C(=O)N4)n2)ccc1O[C@H]1C[C@@H](N(C)C)C1 [US20250171431, Compound 288]"
10,< 500,"COc1cc(N2CCN(C)CC2)ncc1Nc1nccc(Nc2cc3cccc(F)c3nc2O)n1 [US20250171431, Compound 91]"
11,< 500,"COc1cc(Nc2nccc(Nc3cc4c(F)cccc4[nH]c3=O)n2)ccc1O[C@H]1C[C@@H](N(C)C)C1 [US20250171431, Compound 123]"
12,< 500,"COc1cc(Nc2nccc(Nc3cnc4ccccc4c3)n2)ccc1N1CCC(N(C)C)CC1 [US20250171431, Compound 95]"
13,> 10000,"COc1cc(Nc2nccc(Nc3cc4ccccc4nc3C#N)n2)cnc1O[C@H]1C[C@@H](N(C)C)C1 [US20250171431, Compound 269]"
14,< 500,"COc1cc(Nc2nccc(Nc3cc4cccc(F)c4[nH]c3=O)n2)cnc1N1CCC(N(C)C)CC1 [US20250171431, Compound 164]"
15,< 500,"COc1cc(Nc2nccc(Nc3cnc4cncc(F)c4c3)n2)cnc1O[C@H]1C[C@@H](N(C)C)C1 [US20250171431, Compound 88]"
16,< 500,"COc1cc(Nc2nccc(Nc3cnc4c(Cl)cccc4c3)n2)ccc1O[C@H]1C[C@@H](N(C)C)C1 [US20250171431, Compound 344]"
17,< 500,"O=S1(=O)CCN([C@H]2CC[C@@H](Oc3ccc(Nc4nccc(Nc5cnc6ccc(Cl)cc6c5)n4)cc3)CC2)CC1 [US20250171431, Compound 309]"
18,< 500,"COc1cc(Nc2nccc(Nc3cnc4cc(Cl)ccc4c3)n2)ccc1OCCCN1CCCCC1 [US20250171431, Compound 428]"
19,< 500,"COc1cc(Nc2nccc(Nc3cnc4ccc(C#N)cc4c3)n2)ccc1OCCCN1CCCCC1 [US20250171431, Compound 392]"
20,< 500,"COc1cc(C2CCNCC2(F)F)ccc1Nc1nccc(Nc2cc3cccc(F)c3[nH]c2=O)n1 (stereo not given) [US20250171431, Compound 222]"
